# Measured values as given in article PMC9863691, “A Novel Ferroptosis Inhibitor UAMC-3203, a Potential Treatment for Corneal Epithelial Wound” (Pharmaceutics, 2022).
# Tests used:
# [1] = chemical stability of 100 µM solution in PBS; assay type: physicochemical
# Method: The chemical stability of 100 µM UAMC-3203 in PBS (pH 7.4) was investigated for 30 days as described previously. Briefly, four batches with triplicates were stored at 4, 25, or 37 °C with light protection and at 25 °C without light protection. Separate solutions were used for pH-dependent stability studies. Samples were collected, and pH was measured at various times. The samples were stored at −20 °C until HPLC analysis.
# The quantitation of UAMC-3203 was performed with […] reverse-phase HPLC system consisting of a degasser (G1379B), multi-sampler (G1367D), a binary pump (G1312B), a thermostat (G1316B), and a diode array detector (DAD) detector (G1315C). A Zorbax Eclipse XDB-C18 (4.6 × 50 mm, 4 μm; Agilent Technologies, Santa Clara, CA, USA) column was used for the analyses. The mobile phase was composed of 0.1% […] (Sigma-Aldrich, St. Louis, MO, USA) in Milli-Q-H2O and 0.1% […] in acetonitrile (LC-MS Chromasolv, Honeywell, Riedel-de Haen, Seelze, Germany) (65:35% v/v). Isocratic analysis was performed at a flow rate of 1 mL/min. The injection volume was 5 μL, and the detection wavelength was 240 nm.
# [2] = drug distribution in porcine cornea ex vivo; assay type: in vitro ADME
# Method: Fresh porcine (a crossbreed between Matias and Yorkside) eyes were collected in the laboratory animal center at the University of Eastern Finland. The eyes were stored overnight in a keratinocyte serum-free medium (Gibco, Life Technologies Corporation, Grand Island, NY, USA) at +4 °C. The cornea was excised using an incision along the limbus, as described earlier.
# The isolated corneas were rinsed with PBS and mounted in vertical Franz diffusion cells (PermeGear, Inc., Hellertown, PA, USA). Small magnetic stir bars were added to each receiver chamber, and 5 mL of 35 °C BSS Plus supplemented with 10 mM of 4-(2-hydroxyethyl)-1-piperazineethanesulfonic acid (HEPES; Lonza Bioscience, Walkersville, MD, USA) was added to the receiver compartment of each Frantz cell. The experiment was initiated by adding 50 µM UAMC-3203 in 10 mM HEPES-BSS Plus solution to the donor compartment. Samples of 500 µL from donor compartments and corneas were collected at the end of the experiments (at 5, 30, 60, and 120 min). The cornea samples were rinsed with PBS, the epithelial layer was scraped off from the corneas, and the remaining stroma–endothelium samples were cut to pieces. The experiments were carried out in triplicates. The samples were stored at −80 °C until liquid chromatography–tandem mass spectrometry (LC-MS/MS) analyses were performed.
# The values of apparent partition coefficients (Kp) were calculated using drug concentrations on the tissue samples (at 120 min) and in the donor compartment buffer at time zero (ng/mL).
# Quantitative analysis of UAMC-3203 was performed with the LC-MS/MS system that consisted of an Agilent 1290 series liquid chromatograph connected to an Agilent 6495 triple-quadruple mass spectrometer (Agilent Technologies, Inc., USA). The mobile phase consisted of 0.1% formic acid (Fisher chemical, Geel, Belgium), 1 mM ammonium formate (Honeywell, Fluka, Seelze, Germany) in Milli-Q-H2O (eluent A), and acetonitrile (LC-MS Chromasolv, Honeywell, Riedel-de Haen, Seelze, Germany) (eluent B). Gradient elution was used: 0.0 to 3.0 min: 25%→95% B, 3.0 to 3.5 min: 95% B, 3.5 to 3.6 min: 95%→25% B, 3.6 to 5.0 min 25% B. Solvent flow was 0.3 mL/min, and Poroshell 120 SB-C18 column (2.1 mm × 50 mm, 2.7 µm, Agilent Technologies, Inc., USA) was maintained at 60 °C. The injection volume was 2 µL. Nitrogen was used as a drying, nebulizer, and collision gas. The following conditions were used in the electrospray ion source: positive ion mode, sheath gas flow rate 11 L/min at 350 °C, drying gas flow rate 16 L/min at 200 °C, nebulizer gas pressure adjusted to 25 psi, capillary voltage 3500 V (ESI+), fragmentor voltage 380 V, dwell time 150 ms and cell accelerator voltage 5 V. The data were analyzed with Agilent Mass Hunter Quantitative Analyzed software (vB.09.00, build 9.0.647.0, Agilent Technologies, CA, USA). The precursor and fragment ions are presented in Supplementary Table S1.
# HCE cells = assay: in vitro cytotoxicity, MTT assay; assay type: cell-based, human; details: 3 h exposure
# Method: The cytotoxicity of UAMC-3203 was assessed by MTT assay. The HCE cells were seeded on a 96-well plate at a density of 100,000 cells/well in 200 µL of supplemented growth medium. The next day the cells were washed with PBS (pH 7.2). The cells were then exposed to UAMC-3203 at concentrations 10 nM, 1 µM, 10 µM, and 50 µM for 3 h. For control, cells not exposed to UAMC-3203 cultured in a serum-free medium were used. The cells were then washed twice with PBS and incubated 2 h with 100 µL of 10% of thiazolyl blue tetrazolium bromide (MTT, Sigma-Aldrich, St. Louis, MO, USA) in a serum-free medium. An amount of 100 µL of 20% (w/v) sodium dodecyl sulfate (SDS), N-dimethylformamide (DMF) lysis buffer was added to each well and incubated overnight. The following day, cell viability was evaluated by measuring absorbance at 570 nm with a Victor^2 multilabel plate reader (PerkinElmer, Wallac, St. Paul, MN, USA). The cell viability % was calculated as below:(2) % of cell viability=Abs exposed cells−Abs blank/Abs non−exposed cells−Abs blank×100 where Abs exposed cells = absorbance of cells exposed to UAMC-3203; Abs blank = absorbance of well plates without cells; and Abs non–exposed cells = Absorbance of cells exposed to serum-free medium (i.e., control).
# [3] = human microsome; cited from earlier work
structure (smiles),measurement,setting,value
O=S(=O)(NCCN1CCNCC1)c1ccc(NC2CCCCC2)c(NCc2ccccc2)c1 [UAMC-3203],% of initial concentration at day 30,"[1]; 100 µM in PBS pH 7.4, various temperatures and light exposure conditions",about 90%
same,pH of the solution during 30 days,"[1]; starting pH 7.4, all conditions",7.5–7.6
same,Kp epithelium/donor relative to Kp stroma/epithelium,[2],≈ 52 times
same,levels in epithelium higher than in stroma–endothelium,[2]; 50 µM donor,1–2 orders of magnitude
same,level in the cornea at 5 min,"[2]; 50 µM donor, 5 min",≈ 20 µM
same,Kp epithelium/donor,"[2]; 50 µM donor, 120 min",1.95 ± 0.45
same,Kp stroma/epithelium,"[2]; 50 µM donor, 120 min",0.04 ± 0.02
same,epithelium concentration relative to stroma at 120 min,[2]; 120 min,≈ 28 times
same,concentration in corneal epithelium relative to corneal stroma,[2]; over the time points,12–38 fold
same,toxicity to HCE cells,HCE cells; 10 nM,did not cause any toxicity
same,toxicity to HCE cells,HCE cells; 1 µM,did not cause any toxicity
same,HCE cell viability,HCE cells; 10 µM,75 ± 6.7%
same,HCE cell viability,HCE cells; 50 µM,39.2 ± 5.6%
same,t1/2 in human microsome,[3],20 h
